PubChem BioAssay (NCI)
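Results reflect a 48-hour exposure of cells in 96-well plates to compound at five concentrations. Abbreviation: GI50, concentration required for 50% inhibition of growth. TGI: total growth inhibition.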

What was measured:
Experiment in all cases: NCI anticancer screen, dose series, 48 h
[1] = system: OVCAR-4 ovarian
[2] = system: SF-268 CNS
[3] = system: NCI-H522 lung
[4] = system: 786-0 renal
[5] = system: SK-MEL-2 melanoma
[6] = system: MOLT-4 leukemia
[7] = system: SF-295 CNS
[8] = system: BT-549 breast
[9] = system: HCT-15 colon
[10] = system: NCI/ADR-RES ovarian
[11] = system: SK-MEL-28 melanoma
[12] = system: HCT-116 colon
[13] = system: MDA-MB-231 breast
[14] = system: A498 renal
[15] = system: HS 578T breast
[16] = system: HCC-2998 colon
[17] = system: U251 CNS
[18] = system: CAKI-1 renal
[19] = system: COLO 205 colon
[20] = system: NCI-H460 lung
[21] = system: HL-60(TB) leukemia
[22] = system: DU-145 prostate
[23] = system: M14 melanoma
[24] = system: OVCAR-8 ovarian
[25] = system: LOX IMVI melanoma
[26] = system: HOP-92 NSCLC
[27] = system: MCF7 breast
[28] = system: KM12 colon
[29] = system: SR leukemia
[30] = system: NCI-H226 lung
[31] = system: CCRF-CEM leukemia
[32] = system: ACHN renal
[33] = system: SF-539 CNS
[34] = system: T-47D breast
[35] = system: SNB-75 CNS
[36] = system: OVCAR-3 ovarian
[37] = system: TK-10 renal
[38] = system: PC-3 prostate
[39] = system: UACC-62 melanoma
[40] = system: NCI-H23 lung
[41] = system: MALME-3M melanoma
[42] = system: SK-OV-3 ovarian
[43] = system: UO-31 renal
[44] = system: A549 NSCLC
[45] = system: HOP-62 NSCLC
[46] = system: IGROV1 ovarian
[47] = system: UACC-257 melanoma
[48] = system: SW-620 colon
[49] = system: SN12C renal
[50] = system: OVCAR-5 ovarian
[51] = system: MDA-MB-435
[52] = system: EKVX NSCLC
[53] = system: K-562 leukemia
[54] = system: SNB-19 CNS
[55] = system: RPMI-8226 leukemia
[56] = system: HT29 colon
[57] = system: SK-MEL-5 melanoma

SMILES: O=C1c2ccccc2-c2c1c1ccc([N+](=O)[O-])cc1c(=O)n2CCCN1CCOCC1
- GI50 [1]: 0.776 µM
- TGI [1]: > 48.3 µM
- GI50 [2]: 0.114 µM
- TGI [2]: > 100 µM
- GI50 [3]: 0.424 µM
- TGI [3]: > 100 µM
- GI50 [4]: 0.135 µM
- TGI [4]: 2.32 µM
- GI50 [5]: > 61.2 µM
- TGI [5]: > 100 µM
- GI50 [6]: 0.0625 µM
- TGI [6]: > 100 µM
- GI50 [7]: 0.182 µM
- TGI [7]: 31.8 µM
- GI50 [8]: 0.311 µM
- TGI [8]: 16.7 µM
- GI50 [9]: 0.396 µM
- TGI [9]: > 100 µM
- GI50 [10]: 0.293 µM
- TGI [10]: 24.8 µM
- GI50 [11]: > 100 µM
- TGI [11]: > 100 µM
- GI50 [12]: 0.0851 µM
- TGI [12]: 1.81 µM
- GI50 [13]: 24.8 µM
- TGI [13]: > 87.4 µM
- GI50 [14]: > 38.8 µM
- TGI [14]: > 92.4 µM
- GI50 [15]: 5.97 µM
- TGI [15]: > 56.7 µM
- GI50 [16]: > 41 µM
- TGI [16]: > 100 µM
- GI50 [17]: 0.0923 µM
- TGI [17]: 15.8 µM
- GI50 [18]: 0.232 µM
- TGI [18]: > 100 µM
- GI50 [19]: 7.92 µM
- TGI [19]: > 100 µM
- GI50 [20]: 0.193 µM
- TGI [20]: > 100 µM
- GI50 [21]: 0.147 µM
- TGI [21]: > 100 µM
- GI50 [22]: 0.084 µM
- TGI [22]: 3.09 µM
- GI50 [23]: 0.122 µM
- TGI [23]: 0.495 µM
- GI50 [24]: 0.32 µM
- TGI [24]: > 100 µM
- GI50 [25]: 0.0813 µM
- TGI [25]: 0.338 µM
- TGI [26]: > 41.1 µM
- GI50 [27]: < 0.0166 µM
- TGI [27]: > 100 µM
- GI50 [28]: 0.258 µM
- TGI [28]: > 100 µM
- GI50 [29]: 0.0139 µM
- TGI [29]: > 100 µM
- GI50 [30]: > 34.3 µM
- TGI [30]: > 64.8 µM
- GI50 [31]: 0.0224 µM
- TGI [31]: 0.121 µM
- GI50 [32]: 0.128 µM
- GI50 [33]: 0.119 µM
- TGI [33]: 0.415 µM
- GI50 [34]: 0.0971 µM
- TGI [34]: > 100 µM
- GI50 [35]: 1.01 µM
- TGI [35]: > 100 µM
- GI50 [36]: 12.4 µM
- TGI [36]: 29.9 µM
- GI50 [37]: 25.2 µM
- TGI [37]: > 100 µM
- GI50 [38]: 0.291 µM
- TGI [38]: > 100 µM
- GI50 [39]: 0.403 µM
- TGI [39]: > 100 µM
- GI50 [40]: 0.16 µM
- GI50 [41]: 0.268 µM
- TGI [41]: 24.7 µM
- GI50 [42]: 6.57 µM
- TGI [42]: > 100 µM
- GI50 [43]: 0.195 µM
- TGI [43]: > 100 µM
- GI50 [44]: 9.37 µM
- TGI [44]: > 100 µM
- GI50 [45]: 0.0486 µM
- TGI [45]: 0.346 µM
- GI50 [46]: 0.238 µM
- TGI [46]: > 100 µM
- GI50 [47]: 19.6 µM
- TGI [47]: > 100 µM
- GI50 [48]: 0.16 µM
- TGI [48]: > 100 µM
- GI50 [49]: 0.333 µM
- TGI [49]: > 100 µM
- GI50 [50]: 13 µM
- TGI [50]: > 100 µM
- GI50 [51]: 0.867 µM
- TGI [51]: > 100 µM
- GI50 [52]: 20.9 µM
- TGI [52]: > 92.7 µM
- GI50 [53]: 0.324 µM
- TGI [53]: > 100 µM
- GI50 [54]: 0.378 µM
- TGI [54]: > 52.6 µM
- GI50 [55]: 0.138 µM
- TGI [55]: 0.521 µM

SMILES: O=C1CSC(c2cccc([N+](=O)[O-])c2)N1c1ccc(-c2ccc(-n3c(-c4ccccc4)nc4ccccc4c3=O)cc2)cc1 (stereo not drawn)
- TGI [1]: > 100 µM
- TGI [2]: > 100 µM
- TGI [3]: > 100 µM
- TGI [4]: > 100 µM
- TGI [5]: > 100 µM
- TGI [6]: > 100 µM
- TGI [7]: > 100 µM
- TGI [8]: 98.3 µM
- TGI [9]: > 100 µM
- TGI [10]: > 100 µM
- TGI [11]: > 100 µM
- TGI [12]: > 100 µM
- TGI [13]: > 100 µM
- TGI [14]: > 100 µM
- TGI [15]: > 100 µM
- TGI [16]: > 100 µM
- TGI [17]: > 100 µM
- TGI [18]: > 100 µM
- TGI [19]: > 100 µM
- TGI [20]: > 100 µM
- TGI [21]: > 100 µM
- TGI [22]: > 100 µM
- TGI [23]: > 100 µM
- TGI [24]: > 100 µM
- TGI [25]: > 100 µM
- TGI [26]: > 100 µM
- TGI [27]: 92.6 µM
- TGI [28]: 81 µM
- TGI [29]: > 100 µM
- TGI [30]: > 100 µM
- TGI [31]: 91.9 µM
- TGI [32]: > 100 µM
- TGI [33]: > 100 µM
- TGI [34]: > 100 µM
- TGI [36]: > 100 µM
- TGI [37]: > 100 µM
- TGI [38]: > 100 µM
- TGI [39]: > 100 µM
- TGI [56]: > 100 µM
- TGI [40]: > 100 µM
- TGI [41]: > 100 µM
- TGI [42]: > 100 µM
- TGI [43]: > 100 µM
- TGI [44]: > 100 µM
- TGI [57]: > 100 µM
- TGI [45]: > 100 µM
- TGI [46]: > 100 µM
- TGI [47]: > 100 µM
- TGI [48]: > 100 µM
- TGI [49]: > 100 µM
- TGI [50]: > 100 µM
- TGI [51]: > 100 µM
- TGI [52]: > 100 µM
- TGI [53]: > 100 µM
- TGI [54]: > 100 µM
- TGI [55]: > 100 µM
